How the values were obtained:
[1] = system: tumor necrosis factor (α); experiment: Cytokine Induction in Human Cells: tumor necrosis factor (α) by ELISA or IGEN Assay; type: cell-based; settings: human PBMC, incubated 18 to 24 hours, tested at 30–0.014 μM; induction at ≦10 μM
From the text: (§1) An in vitro human blood cell system is used to assess cytokine induction. Activity is based on the measurement of interferon and tumor necrosis factor (α) (IFN and TNF, respectively) secreted into culture media as described by Testerman et. al. In “Cytokine Induction by the Immunomodulators Imiquimod and S-27609”, Journal of Leukocyte Biology, 58, 365–372 (September, 1995).
(§2) Whole blood from healthy human donors is collected by venipuncture into EDTA vacutainer tubes. Peripheral blood mononuclear cells (PBMC) are separated from whole blood by density gradient centrifugation using Histopaque®-1077. Blood is diluted 1:1 with Dulbecco's Phosphate Buffered Saline (DPBS) or Hank's Balanced Salts Solution (HBSS). The PBMC layer is collected and washed twice with DPBS or HBSS and resuspended at 4×10^6 cells/mL in RPMI complete. The PBMC suspension is added to 48 well flat bottom sterile tissue culture plates (Costar, Cambridge, Mass. or Becton Dickinson Labware, Lincoln Park, N.J.) containing an equal volume of RPMI complete media containing test compound.
(§3) The compounds are solubilized in dimethyl sulfoxide (DMSO). The DMSO concentration should not exceed a final concentration of 1% for addition to the culture wells. The compounds are generally tested at concentrations ranging from 30–0.014 μM.
(§4) The solution of test compound is added at 60 μM to the first well containing RPMI complete and serial 3 fold dilutions are made in the wells. The PBMC suspension is then added to the wells in an equal volume, bringing the test compound concentrations to the desired range (30–0.014 μM). The final concentration of PBMC suspension is 2×10^6 cells/mL. The plates are covered with sterile plastic lids, mixed gently and then incubated for 18 to 24 hours at 37° C. in a 5% carbon dioxide atmosphere.
(§5) Following incubation the plates are centrifuged for 10 minutes at 1000 rpm (˜200×g) at 4° C. The cell-free culture supernatant is removed with a sterile polypropylene pipet and transferred to sterile polypropylene tubes. Samples are maintained at −30 to −70° C. until analysis. The samples are analyzed for interferon (a) by ELISA and for tumor necrosis factor (α) by ELISA or IGEN Assay.
Tumor necrosis factor (α) (TNF-α) concentration is determined using ELISA kits available from Biosource International, Camarillo, Calif. Alternately, the TNF-α concentration can be determined by Origen® M-Series Immunoassay and read on an IGEN M-8 analyzer from IGEN International, Gaithersburg, Md. The immunoassay uses a human TNF-α capture and detection antibody pair from Biosource International, Camarillo, Calif. Results are expressed in pg/mL.

interferon (α) = experiment: Cytokine Induction in Human Cells: interferon (α) by ELISA; type: cell-based; settings: human PBMC, incubated 18 to 24 hours, tested at 30–0.014 μM; induction at ≦10 μM
From the text: as §1, §2, §3, §4, §5
Interferon (α) concentration is determined by ELISA using a Human Multi-Species kit from PBL Biomedical Laboratories, New Brunswick, N.J. Results are expressed in pg/mL.

[2] = Solubility in DMSO for testing; type: physicochemical; set-up: key: *: the compound was not adequately soluble in DMSO to permit testing; settings: printed as * in the cytokine columns
Description: as §3
Compounds of the invention were tested for their ability to induce cytokine biosynthesis using the method described above.

Structure (SMILES)	melting point	adequately soluble in DMSO to permit testing [2]	Tumor Necrosis Factor (α) [1]	Interferon (α) (interferon (α))
CCCCc1nc2c(N)nc3ccccc3c2n1CCCCNC(=O)NCCCCn1c(CCCC)nc2c(N)nc3ccccc3c21 [Example 1, N,N′-bis[4-(4-amino-2-butyl-1H-imidazo[4,5-c]quinolin-1-yl)butyl]urea]	218.1 to 219.7 °C		+ (at concentrations of ≦10 μM the compound induced the indicated cytokine)	+ (at concentrations of ≦10 μM the compound induced the indicated cytokine)
CCCCc1nc2c(N)nc3ccccc3c2n1CCCCNC(=O)Nc1cccc(NC(=O)NCCCCn2c(CCCC)nc3c(N)nc4ccccc4c32)c1 [Example 2, N,N″-1,3-phenylenebis{N′-[4-(4-amino-2-butyl-1H-imidazo[4,5-c]quinolin-1-yl)butyl]urea}]	160.3 to 165.6 °C		+ (at concentrations of ≦10 μM the compound induced the indicated cytokine)	+ (at concentrations of ≦10 μM the compound induced the indicated cytokine)
COCCc1nc2c(N)nc3ccccc3c2n1CCOCCNC(=O)c1ccc(C(=O)NCCOCCn2c(CCOC)nc3c(N)nc4ccccc4c32)cc1 [Example 6, N,N′-bis(2-{2-[4-amino-2-(2-methoxyethyl)-1H-imidazo[4,5-c]quinolin-1-yl]ethoxy}ethyl)terephthalamide]			+ (at concentrations of ≦10 μM the compound induced the indicated cytokine)	+ (at concentrations of ≦10 μM the compound induced the indicated cytokine)

Continued, in another order:

melting point	adequately soluble in DMSO to permit testing [2]	Structure (SMILES)	Tumor Necrosis Factor (α) [1]	Interferon (α) (interferon (α))
152.1 to 156.1 °C		CCCCc1nc2c(N)nc3ccccc3c2n1CCCCNC(=O)Nc1ccc(Oc2ccc(NC(=O)NCCCCn3c(CCCC)nc4c(N)nc5ccccc5c43)cc2)cc1 [Example 3, N-[4-(4-amino-2-butyl-1H-imidazo[4,5-c]quinolin-1-yl)butyl]-N′-(4-{4-[({[4-(4-amino-2-butyl-1H-imidazo[4,5-c]quinolin-1-yl)butyl]amino}carbonyl)amino]phenoxy}phenyl)urea]	+ (at concentrations of ≦10 μM the compound induced the indicated cytokine)	+ (at concentrations of ≦10 μM the compound induced the indicated cytokine)
184.5 to 188.8 °C		CCCCc1nc2c(N)nc3ccccc3c2n1CCCCNC(=O)N[C@H]1CC[C@H](NC(=O)NCCCCn2c(CCCC)nc3c(N)nc4ccccc4c32)CC1 [Example 4, N,N″-trans-1,4-cyclohexylenebis{N′-[4-(4-amino-2-butyl-1H-imidazo[4,5-c]quinolin-1-yl)butyl]urea}]	+ (at concentrations of ≦10 μM the compound induced the indicated cytokine)	+ (at concentrations of ≦10 μM the compound induced the indicated cytokine)
115 to 120 °C		COCCc1nc2c(N)nc3ccccc3c2n1CCOCCNS(=O)(=O)c1cccc(S(=O)(=O)NCCOCCn2c(CCOC)nc3c(N)nc4ccccc4c32)c1 [Example 5, N,N-bis(2-{2-[4-amino-2-(2-methoxyethyl)-1H-imidazo[4,5-c]quinolin-1-yl]ethoxy}ethyl)benzene-1,3-disulfonamide]	+ (at concentrations of ≦10 μM the compound induced the indicated cytokine)	+ (at concentrations of ≦10 μM the compound induced the indicated cytokine)
172.5 to 177 °C		COCCc1nc2c(N)nc3ccccc3c2n1CCOCCNC(=O)NCCCCCCCCNC(=O)NCCOCCn1c(CCOC)nc2c(N)nc3ccccc3c21 [Example 7, N,N″-1,8-octanediylbis[N′-(2-{2-[4-amino-2-(methoxyethyl)-1H-imidazo[4,5-c]quinolin-1-yl]ethoxy}ethyl)urea]]	+ (at concentrations of ≦10 μM the compound induced the indicated cytokine)	+ (at concentrations of ≦10 μM the compound induced the indicated cytokine)
237 to 238 °C	*	CCOCc1nc2c(N)nc3ccccc3c2n1CCCCCCCCCCn1c(COCC)nc2c(N)nc3ccccc3c21 [Example 8, 1-[10-(4-amino-2-ethoxymethyl-1H-imidazo[4,5-c]quinolin-1-yl)decyl]-2-ethoxymethyl-1H-imidazo[4,5-c]quinoline-4-amine]		
